In publication PMC5218480 (PLoS ONE, 2017):

System: MV-4-11 cells
Test: Gene expression microarray analysis (Affymetrix PrimeView) and GSEA
Format: cell-based, human
Parameters: RFU PODN (11730768_x_at) / Fold change /veh PODN (11730768_x_at) / RFU LINC00158 (11744669_a_at) / Fold change /veh LINC00158 (11744669_a_at) / RFU DUSP10 (11751237_a_at) / Fold change /veh DUSP10 (11751237_a_at) / RFU ID3 (11757404_x_at) / Fold change /veh ID3 (11757404_x_at) / RFU PLEKHG5 (11737974_s_at) / Fold change /veh PLEKHG5 (11737974_s_at) / RFU LRRC4B (11730491_at) / Fold change /veh LRRC4B (11730491_at) / RFU GIMAP4 (11747438_a_at) / Fold change /veh GIMAP4 (11747438_a_at) / RFU KRT8 (11758183_x_at) / Fold change /veh KRT8 (11758183_x_at) / RFU CNN1 (11734310_a_at) / Fold change /veh CNN1 (11734310_a_at) / RFU VPS37D (11726825_at) / Fold change /veh VPS37D (11726825_at) / RFU C10orf10 (11716522_x_at) / Fold change /veh C10orf10 (11716522_x_at) / RFU KIR2DL2 /// KIR2DL4 /// KIR2DL5A /// KIR2DL5B /// KIR2DS1 /// KIR2DS2 /// KIR2DS3 /// KIR2DS4 /// KIR3DL3 /// KIR3DL3 /// KIR3DS1 (11738374_at) / Fold change /veh KIR2DL2 /// KIR2DL4 /// KIR2DL5A /// KIR2DL5B /// KIR2DS1 /// KIR2DS2 /// KIR2DS3 /// KIR2DS4 /// KIR3DL3 /// KIR3DL3 /// KIR3DS1 (11738374_at) / RFU C1QL1 (11718748_at) / Fold change /veh C1QL1 (11718748_at) / RFU TMPRSS4 (11747572_a_at) / Fold change /veh TMPRSS4 (11747572_a_at) / RFU HAMP (11756126_x_at) / Fold change /veh HAMP (11756126_x_at) / RFU RNFT2 (11725882_a_at) / Fold change /veh RNFT2 (11725882_a_at) / RFU NR4A2 (11747474_a_at) / Fold change /veh NR4A2 (11747474_a_at) / RFU ABCC12 (11746883_a_at) / Fold change /veh ABCC12 (11746883_a_at) / RFU TMEM136 (11760407_x_at) / Fold change /veh TMEM136 (11760407_x_at) / RFU CLDN22 /// WWC2 (11732394_at) / Fold change /veh CLDN22 /// WWC2 (11732394_at) / RFU HLA-DPB1 (11760878_x_at) / Fold change /veh HLA-DPB1 (11760878_x_at) / RFU SPINT1 (11716480_a_at) / Fold change /veh SPINT1 (11716480_a_at) / RFU GAP43 (11754022_s_at) / Fold change /veh GAP43 (11754022_s_at) / RFU A4GNT (11735810_at) / Fold change /veh A4GNT (11735810_at) / RFU PRB3 (11715151_x_at) / Fold change /veh PRB3 (11715151_x_at) / RFU TUBB4B (11761932_at) / Fold change /veh TUBB4B (11761932_at) / RFU CAPN14 (11732068_a_at) / Fold change /veh CAPN14 (11732068_a_at) / RFU TMCC2 (11721928_a_at) / Fold change /veh TMCC2 (11721928_a_at) / RFU IRGQ (11745062_a_at) / Fold change /veh IRGQ (11745062_a_at) / RFU FAM174B (11720279_a_at) / Fold change /veh FAM174B (11720279_a_at) / RFU TMPRSS4 (11748680_a_at) / Fold change /veh TMPRSS4 (11748680_a_at) / RFU FAM212B (11763350_a_at) / Fold change /veh FAM212B (11763350_a_at) / RFU PLEKHG5 (11743358_a_at) / Fold change /veh PLEKHG5 (11743358_a_at) / RFU ZSCAN30 (11745921_a_at) / Fold change /veh ZSCAN30 (11745921_a_at) / RFU CMKLR1 (11741424_a_at) / Fold change /veh CMKLR1 (11741424_a_at) / RFU LOC101060620 /// MAPK8IP1 (11723275_at) / Fold change /veh LOC101060620 /// MAPK8IP1 (11723275_at) / RFU SPTSSB (11747773_x_at) / Fold change /veh SPTSSB (11747773_x_at) / RFU PRSS12 (11739890_at) / Fold change /veh PRSS12 (11739890_at) / RFU BIN1 (11741810_x_at) / Fold change /veh BIN1 (11741810_x_at) / RFU WNT11 (11732464_a_at) / Fold change /veh WNT11 (11732464_a_at) / RFU C10orf10 (11716521_a_at) / Fold change /veh C10orf10 (11716521_a_at) / RFU C5orf56 (11738089_at) / Fold change /veh C5orf56 (11738089_at) / RFU CYB561 (11721691_x_at) / Fold change /veh CYB561 (11721691_x_at) / RFU ANKRD19P (11752326_a_at) / Fold change /veh ANKRD19P (11752326_a_at) / RFU OR2T12 /// OR2T33 /// OR2T8 (11738714_s_at) / Fold change /veh OR2T12 /// OR2T33 /// OR2T8 (11738714_s_at) / RFU VCAN (11748164_a_at) / Fold change /veh VCAN (11748164_a_at) / RFU JSRP1 (11732532_at) / Fold change /veh JSRP1 (11732532_at) / RFU KRTAP10-11 (11738290_x_at) / Fold change /veh KRTAP10-11 (11738290_x_at) / RFU MYO3A (11730013_a_at) / Fold change /veh MYO3A (11730013_a_at) / RFU EBF3 (11725865_a_at) / Fold change /veh EBF3 (11725865_a_at) / RFU CAMK2N1 (11719241_x_at) / Fold change /veh CAMK2N1 (11719241_x_at) / RFU C5orf56 (11738088_a_at) / Fold change /veh C5orf56 (11738088_a_at) / RFU OLFML3 (11715873_a_at) / Fold change /veh OLFML3 (11715873_a_at) / RFU LOC100653217 /// NTM (11731650_a_at) / Fold change /veh LOC100653217 /// NTM (11731650_a_at) / RFU MAPK11 (11762145_a_at) / Fold change /veh MAPK11 (11762145_a_at) / RFU FIZ1 (11724087_x_at) / Fold change /veh FIZ1 (11724087_x_at) / RFU OASL (11726364_x_at) / Fold change /veh OASL (11726364_x_at) / RFU SOX15 (11748057_x_at) / Fold change /veh SOX15 (11748057_x_at) / RFU CD79A (11719716_a_at) / Fold change /veh CD79A (11719716_a_at) / RFU HIST1H1D (11736915_at) / Fold change /veh HIST1H1D (11736915_at) / RFU CASKIN2 (11723855_a_at) / Fold change /veh CASKIN2 (11723855_a_at) / RFU LOC730098 (11760151_x_at) / Fold change /veh LOC730098 (11760151_x_at) / RFU OR4N2 (11742367_at) / Fold change /veh OR4N2 (11742367_at) / RFU PRRT2 (11749266_a_at) / Fold change /veh PRRT2 (11749266_a_at) / RFU SNX32 (11753110_a_at) / Fold change /veh SNX32 (11753110_a_at) / RFU CDHR5 (11726645_a_at) / Fold change /veh CDHR5 (11726645_a_at) / RFU RCAN1 (11760418_a_at) / Fold change /veh RCAN1 (11760418_a_at) / RFU FAM167A (11723789_a_at) / Fold change /veh FAM167A (11723789_a_at) / RFU FAM26E (11764081_at) / Fold change /veh FAM26E (11764081_at) / RFU ISYNA1 (11749810_s_at) / Fold change /veh ISYNA1 (11749810_s_at) / RFU ACY1 (11761880_at) / Fold change /veh ACY1 (11761880_at) / RFU 11764098_at / Fold change /veh 11764098_at / RFU SAMD14 (11745864_x_at) / Fold change /veh SAMD14 (11745864_x_at) / RFU NPB (11741838_a_at) / Fold change /veh NPB (11741838_a_at) / RFU TMPRSS6 (11731388_a_at) / Fold change /veh TMPRSS6 (11731388_a_at) / RFU KRTAP10-2 (11738614_at) / Fold change /veh KRTAP10-2 (11738614_at) / RFU ARHGAP8 /// PRR5-ARHGAP8 (11727945_x_at) / Fold change /veh ARHGAP8 /// PRR5-ARHGAP8 (11727945_x_at) / RFU KRTAP5-7 /// NADSYN1 (11734609_at) / Fold change /veh KRTAP5-7 /// NADSYN1 (11734609_at) / RFU RASL12 (11751679_a_at) / Fold change /veh RASL12 (11751679_a_at) / RFU CDKN2B (11736163_a_at) / Fold change /veh CDKN2B (11736163_a_at) / RFU PRF1 (11729649_at) / Fold change /veh PRF1 (11729649_at) / RFU, ZNF638 /// ZNF638-IT1 / Fold change vs veh, ZNF638 /// ZNF638-IT1 / RFU, PANK3 / Fold change vs veh, PANK3 / RFU, SH3YL1 / Fold change vs veh, SH3YL1 / RFU, ZEB2 / Fold change vs veh, ZEB2 / RFU, NRIP1 / Fold change vs veh, NRIP1 / RFU, PTTG1IP / Fold change vs veh, PTTG1IP / RFU, CAPN2 / Fold change vs veh, CAPN2 / RFU, MED14 / Fold change vs veh, MED14 / RFU, SNORA58 / Fold change vs veh, SNORA58 / RFU, C1orf63 / Fold change vs veh, C1orf63 / RFU, LRRFIP1 / Fold change vs veh, LRRFIP1 / RFU, NDUFAF7 / Fold change vs veh, NDUFAF7 / RFU, SLC12A2 / Fold change vs veh, SLC12A2 / RFU, IBTK / Fold change vs veh, IBTK / RFU, ESF1 / Fold change vs veh, ESF1 / Fold change vs veh, TMEM50B / RFU, TAOK1 / Fold change vs veh, TAOK1 / RFU, ACBD3 / Fold change vs veh, ACBD3 / RFU, TMA16 / Fold change vs veh, TMA16 / RFU, RWDD3 / Fold change vs veh, RWDD3 / RFU, BCAT1 / Fold change vs veh, BCAT1 / RFU, EDEM3 / Fold change vs veh, EDEM3 / RFU, TMEM33 / Fold change vs veh, TMEM33 / RFU, WDR75 / Fold change vs veh, WDR75 / RFU, AHCTF1 / Fold change vs veh, AHCTF1 / RFU, TFRC / Fold change vs veh, TFRC / RFU, ZDHHC17 / Fold change vs veh, ZDHHC17 / RFU, NOM1 / Fold change vs veh, NOM1 / RFU, ARL8B / Fold change vs veh, ARL8B / RFU, ZBTB11 / Fold change vs veh, ZBTB11 / RFU, TAMM41 / Fold change vs veh, TAMM41 / RFU, KIAA1704 /// LOC100996395 / Fold change vs veh, KIAA1704 /// LOC100996395 / RFU, ING1 / Fold change vs veh, ING1 / RFU, TRMT61B / Fold change vs veh, TRMT61B / RFU, FUBP3 / Fold change vs veh, FUBP3 / RFU, TP53 / Fold change vs veh, TP53 / RFU, TNKS2 / Fold change vs veh, TNKS2 / RFU, ZFP14 / Fold change vs veh, ZFP14 / RFU, ACTR2 / Fold change vs veh, ACTR2 / RFU, PPP3R1 / Fold change vs veh, PPP3R1 / RFU, PIK3R1 / Fold change vs veh, PIK3R1 / RFU, HNRNPA1 / Fold change vs veh, HNRNPA1 / RFU, RNF170 / Fold change vs veh, RNF170 / RFU, ZNF28 / Fold change vs veh, ZNF28 / RFU, RNGTT / Fold change vs veh, RNGTT / RFU, OGT / Fold change vs veh, OGT / RFU, BRD1 / Fold change vs veh, BRD1 / RFU, MARS / Fold change vs veh, MARS / RFU, ZNF655 / Fold change vs veh, ZNF655 / RFU, FAHD1 / Fold change vs veh, FAHD1 / RFU, BDP1 / Fold change vs veh, BDP1 / RFU, LRRCC1 / Fold change vs veh, LRRCC1 / RFU, ARID1A / Fold change vs veh, ARID1A / RFU, ZNF146 / Fold change vs veh, ZNF146 / RFU, ZNF330 / Fold change vs veh, ZNF330 / RFU, GPN3 / Fold change vs veh, GPN3 / RFU, C9orf123 / Fold change vs veh, C9orf123 / RFU, N4BP2L2 / Fold change vs veh, N4BP2L2 / RFU, ARFIP1 / Fold change vs veh, ARFIP1 / RFU, FAM179B / Fold change vs veh, FAM179B / RFU, BCL10 / Fold change vs veh, BCL10 / RFU, UHRF1BP1L / Fold change vs veh, UHRF1BP1L / RFU, BET1 / Fold change vs veh, BET1 / RFU, CNOT2 / Fold change vs veh, CNOT2 / RFU, ZNF268 / Fold change vs veh, ZNF268 / Fold change vs veh, ZNF507 / RFU, DGCR2 / Fold change vs veh, DGCR2 / RFU, WDSUB1 / Fold change vs veh, WDSUB1 / Fold change vs veh, HSP90B1 /// MIR3652 / RFU, ADSS / Fold change vs veh, ADSS / RFU, GK / Fold change vs veh, GK / RFU, ZNF148 / Fold change vs veh, ZNF148 / RFU, TAF9 / Fold change vs veh, TAF9 / RFU, SLC1A5 / Fold change vs veh, SLC1A5 / RFU, SLMO2 / Fold change vs veh, SLMO2 / RFU, ABCC4 / Fold change vs veh, ABCC4 / RFU, LOC101060439 /// RAP1B / Fold change vs veh, LOC101060439 /// RAP1B / RFU, RFX7 / Fold change vs veh, RFX7 / RFU, GTPBP10 / Fold change vs veh, GTPBP10 / RFU, CNEP1R1 / Fold change vs veh, CNEP1R1 / RFU, BIVM-ERCC5 /// ERCC5 / Fold change vs veh, BIVM-ERCC5 /// ERCC5 / RFU, ILF3 / Fold change vs veh, ILF3 / RFU 11762660_at / Fold change /veh 11762660_at / RFU VCAN (11757783_s_at) / Fold change /veh VCAN (11757783_s_at) / RFU DDX43 (11728927_at) / Fold change /veh DDX43 (11728927_at) / RFU KRT8 (11758188_x_at) / Fold change /veh KRT8 (11758188_x_at) / RFU NKD1 (11759106_at) / Fold change /veh NKD1 (11759106_at) / RFU SRD5A1 (11742802_a_at) / Fold change /veh SRD5A1 (11742802_a_at) / RFU TPSAB1 /// TPSB2 (11721975_s_at) / Fold change /veh TPSAB1 /// TPSB2 (11721975_s_at) / RFU GSTM3 (11746129_a_at) / Fold change /veh GSTM3 (11746129_a_at) / RFU IL23R (11737362_x_at) / Fold change /veh IL23R (11737362_x_at) / RFU TMEM51 (11727254_a_at) / Fold change /veh TMEM51 (11727254_a_at) / RFU PIWIL2 (11732686_x_at) / Fold change /veh PIWIL2 (11732686_x_at) / RFU ORM1 (11744905_x_at) / Fold change /veh ORM1 (11744905_x_at) / RFU CCDC152 (11743942_at) / Fold change /veh CCDC152 (11743942_at) / RFU ECM1 (11717891_a_at) / Fold change /veh ECM1 (11717891_a_at) / RFU IL23R (11748794_a_at) / Fold change /veh IL23R (11748794_a_at) / RFU TNFAIP8L3 (11732012_x_at) / Fold change /veh TNFAIP8L3 (11732012_x_at) / RFU MBOAT4 (11741988_at) / Fold change /veh MBOAT4 (11741988_at) / RFU 11764193_at / Fold change /veh 11764193_at / RFU TMEM53 (11763286_at) / Fold change /veh TMEM53 (11763286_at) / RFU MAGEB2 (11727129_at) / Fold change /veh MAGEB2 (11727129_at) / RFU TMEM200A (11744735_a_at) / Fold change /veh TMEM200A (11744735_a_at) / RFU CCDC152 (11751479_a_at) / Fold change /veh CCDC152 (11751479_a_at) / RFU FAM211A (11726209_a_at) / Fold change /veh FAM211A (11726209_a_at) / RFU RGS16 (11746705_a_at) / Fold change /veh RGS16 (11746705_a_at) / RFU VCAN (11755009_s_at) / Fold change /veh VCAN (11755009_s_at) / RFU RHOB (11743442_s_at) / Fold change /veh RHOB (11743442_s_at) / RFU RGS16 (11720943_a_at) / Fold change /veh RGS16 (11720943_a_at) / RFU RGS16 (11720944_at) / Fold change /veh RGS16 (11720944_at) / RFU, VPS4B / Fold change vs veh, VPS4B / RFU, CREB1 / Fold change vs veh, CREB1 / RFU, DNAJC13 / Fold change vs veh, DNAJC13 / RFU, GNAQ / Fold change vs veh, GNAQ / RFU, CDK5R1 / Fold change vs veh, CDK5R1 / RFU, ZRANB3 / Fold change vs veh, ZRANB3 / RFU, CUL4A / Fold change vs veh, CUL4A / RFU, CCNY / Fold change vs veh, CCNY / RFU, UFL1 / Fold change vs veh, UFL1 / RFU, COG3 / Fold change vs veh, COG3 / RFU, DIAPH2 / Fold change vs veh, DIAPH2 / RFU, SKA2 / Fold change vs veh, SKA2 / RFU, AFF3 / Fold change vs veh, AFF3 / RFU, LMF1 / Fold change vs veh, LMF1 / RFU, IPO11 / Fold change vs veh, IPO11 / RFU, DFFB / Fold change vs veh, DFFB / RFU, FOXP1 / Fold change vs veh, FOXP1 / RFU, CARD8 / Fold change vs veh, CARD8 / RFU, STRN3 / Fold change vs veh, STRN3 / RFU, ADK / Fold change vs veh, ADK / RFU, RASSF2 / Fold change vs veh, RASSF2 / RFU, WIPF1 / Fold change vs veh, WIPF1 / RFU, LARP1B / Fold change vs veh, LARP1B / RFU, RASA1 / Fold change vs veh, RASA1 / RFU, RB1 / Fold change vs veh, RB1 / RFU, PPFIA1 / Fold change vs veh, PPFIA1 / RFU, MAT2A / Fold change vs veh, MAT2A / RFU, CCT5 / Fold change vs veh, CCT5 / RFU, WDR92 / Fold change vs veh, WDR92 / RFU, CUX1 / Fold change vs veh, CUX1 / RFU, TTC7A / Fold change vs veh, TTC7A / RFU, TMEM135 / Fold change vs veh, TMEM135 / RFU, DEPTOR / Fold change vs veh, DEPTOR / RFU, CPM / Fold change vs veh, CPM / RFU, DNAJB6 / Fold change vs veh, DNAJB6 / RFU, CACNA2D3 / Fold change vs veh, CACNA2D3 / RFU, DTX4 / Fold change vs veh, DTX4 / RFU, TFCP2 / Fold change vs veh, TFCP2 / RFU, GMCL1 /// GMCL1P1 / Fold change vs veh, GMCL1 /// GMCL1P1 / RFU, AEBP2 / Fold change vs veh, AEBP2 / RFU, SNHG1 /// SNORD22 /// SNORD25 /// SNORD26 /// SNORD27 /// SNORD28 /// SNORD29 /// SNORD31 / Fold change vs veh, SNHG1 /// SNORD22 /// SNORD25 /// SNORD26 /// SNORD27 /// SNORD28 /// SNORD29 /// SNORD31 / Fold change (Aza/veh), C12orf56 (ProbeSet 11735607_a_at) / Fold change (ACY-1035/veh), C12orf56 (ProbeSet 11735607_a_at) / Fold change (Aza/veh), FGFR1OP (ProbeSet 11751329_s_at) / Fold change (ACY-1035/veh), FGFR1OP (ProbeSet 11751329_s_at) / Fold change (Aza/veh), VPS36 (ProbeSet 11739960_a_at) / Fold change (ACY-1035/veh), VPS36 (ProbeSet 11739960_a_at) / RFU SYPL1 (11715823_x_at) / Fold change /veh SYPL1 (11715823_x_at) / RFU IGFBP7 (11715501_s_at) / Fold change /veh IGFBP7 (11715501_s_at) / RFU REEP3 (11722064_at) / Fold change /veh REEP3 (11722064_at) / RFU IGLL1 (11728026_x_at) / Fold change /veh IGLL1 (11728026_x_at): dose or concentration left out as unconfirmed
Settings: MV-4-11 cells, 48 hours

Nc1ncn([C@@H]2O[C@H](CO)[C@@H](O)[C@H]2O)c(=O)n1 [azacitidine]
RFU CLDN22 /// WWC2 (11732394_at): 8.78 RFU
